We go through 1 compound from ChEMBL document CHEMBL1671637, “Development, stability, and molecular mechanisms of macrolide resistance in Campylobacter jejuni” (2008).

Structures are written as SMILES. In brackets after ≈: the same amount, converted by molar mass. Activity calls are given as the source filed them. Where only a bound is given, the exact number is not on record here.

Assay [1] deals with Campylobacter jejuni. As to the kind of experiment: Antimicrobial activity against Campylobacter jejuni DC26 infected in 15 days old chicken food on medicated food by agar dilution method. The assay is classed as functional.
Assay [2] has as its system Campylobacter jejuni. The experiment in a line: Antimicrobial activity against Campylobacter jejuni DC26 infected in chicken assessed as microbial shedding level after compound administration through feed for 20 days. In kind it is functional, organism-based.
Assay [3] has as its system Campylobacter jejuni. The experiment in a line: Antimicrobial activity against Campylobacter jejuni DC2 infected in chicken assessed as microbial shedding level after compound administration through feed for 20 days. The assay is classed as functional, organism-based.
Assay [4] relates to Campylobacter jejuni. The experiment in a line: Antimicrobial activity against Campylobacter jejuni DC6 infected in 3 days old chicken by agar dilution method. In kind it is functional. (In agar dilution the substance is mixed into plates at graded concentrations.)
Assay [5] deals with Campylobacter jejuni. The experiment in a line: Antimicrobial activity against Campylobacter jejuni DC2 infected in 15 days old chicken food on medicated food by agar dilution method. In kind it is functional.
The test system of assay [6] is Campylobacter jejuni. The experiment in a line: Antimicrobial activity against Campylobacter jejuni DC2 infected in 3 days old chicken by agar dilution method. In kind it is functional.
Assay [7] has as its system Campylobacter jejuni. As to the kind of experiment: Antimicrobial activity against Campylobacter jejuni DC2 infected in 15 days old chicken by agar dilution method. In kind it is functional.

Usually MIC stands for the smallest concentration in the dilution series that meets the test's criterion for growth inhibition. A higher MIC goes with a less susceptible organism. For the compound `CC[C@H]1OC(=O)C[C@@H](O)[C@H](C)[C@@H](O[C@@H]2O[C@H](C)[C@@H](O[C@H]3C[C@@](C)(O)[C@@H](O)[C@H](C)O3)[C@H](N(C)C)[C@H]2O)[C@@H](CC=O)C[C@@H](C)C(=O)/C=C/C(C)=C/[C@@H]1CO[C@@H]1O[C@H](C)[C@@H](O)[C@@H](OC)[C@H]1OC` [TYLOSIN], the MIC against Campylobacter jejuni [1] is 128 µg/mL (≈ 140 µM); in the assay with Campylobacter jejuni [4] it was above 512 µg/mL; against Campylobacter jejuni [5], 64 µg/mL (≈ 69.9 µM); in the assay on Campylobacter jejuni [6], 64 µg/mL (≈ 69.9 µM); in the assay on Campylobacter jejuni [7], 64 µg/mL (≈ 69.9 µM). Besides, the outcome in the assay on Campylobacter jejuni [2] and with Campylobacter jejuni [3] was inactive.
